Test results taken from publication PMC6858927 (Investigational new drugs, 2019).
Read-outs that look alike come from different tables or passages of the source.

[1] = Cohort B Dose 2: 400mg, Decitabine (n=2), grade 3+
[2] = Cohort B dose 1: 200mg, Decitabine (n=6), Total
[3] = Cohort B dose 1: 200mg, Decitabine (n=6), grade 1&2
[4] = Cohort B dose 1: 200mg, Decitabine (n=6), grade 3+

In the case of C1=C/COCc2cc(ccc2OCCN2CCCC2)Nc2nccc(n2)-c2cccc(c2)COC/1 [Pacritinib, 11-(2-pyrrolidin-1-yl-ethoxy)-14,19-dioxa-5,7,26-triaza-tetracyclo[19.3.1.1(2,6). 1(8,12)]heptacosa-1(25),2(26),3,5,8,10,12(27),16,21,23-decaene], the “HYPERTENSION, patients (%)” value [1] is reported as 0, the “HYPOALBUMINEMIA, patients (%)” value [1] is reported as 0 and the “HYPOKALEMIA, patients (%)” value [1] is reported as 1 (50). For the same molecule, the “HYPOPHOSPHATEMIA, patients (%)” value [1] was 0, the “HYPOXIA, patients (%)” value [1] was 0 and the “LUNG INFECTION, patients (%)” value [1] was 0. For the same molecule, the “LYMPHOCYTE COUNT DECREASED, patients (%)” value [1] was 1 (50), the “MUCOSITIS ORAL, patients (%)” value [1] was 0 and the “NAUSEA, patients (%)” value [1] was 1 (50). The “NEUTROPHIL COUNT DECREASED, patients (%)” value [1] was 1 (50), the “PLATELET COUNT DECREASED, patients (%)” value [1] was 1 (50) and the “PLEURAL EFFUSION, patients (%)” value [1] was 0. For the same molecule, the “PRURITUS, patients (%)” value [1] was 0, the “RASH MACULO-PAPULAR, patients (%)” value [1] was 0 and the “RASH, patients (%)” value [1] was 0. For the same molecule, the “RESPIRATORY FAILURE, patients (%)” value [1] was 0, the “VOMITING, patients (%)” value [1] was 0 and the “WHITE BLOOD CELL DECREASED, patients (%)” value [1] was 1 (50). For the same molecule, the “ACTIVATED PARTIAL THROMBOPLASTIN TIME PROLONGED, patients (%)” value [2] was 1 (16.7), the “ANEMIA, patients (%)” value [2] was 6 (100) and the “ANOREXIA, patients (%)” value [2] was 2 (33.3). For the same molecule, the “CONSTIPATION, patients (%)” value [2] was 1 (16.7), the “DIARRHEA, patients (%)” value [2] was 1 (16.7) and the “DYSPNEA, patients (%)” value [2] was 0. For the same molecule, the “EDEMA LIMBS, patients (%)” value [2] was 1 (16.7), the “ELECTROCARDIOGRAM QT CORRECTED INTERVAL PROLONGED, patients (%)” value [2] was 2 (33.3) and the “FATIGUE, patients (%)” value [2] was 2 (33.3). The “FEBRILE NEUTROPENIA, patients (%)” value [2] was 1 (16.7), the “HYPERGLYCEMIA, patients (%)” value [2] was 1 (16.7) and the “HYPERTENSION, patients (%)” value [2] was 0. For the same molecule, the “HYPOALBUMINEMIA, patients (%)” value [2] was 1 (16.7), the “HYPOKALEMIA, patients (%)” value [2] was 2 (33.3) and the “HYPOPHOSPHATEMIA, patients (%)” value [2] was 1 (16.7). The “HYPOXIA, patients (%)” value [2] was 0, the “LUNG INFECTION, patients (%)” value [2] was 1 (16.7) and the “LYMPHOCYTE COUNT DECREASED, patients (%)” value [2] was 3 (50). For the same molecule, the “MUCOSITIS ORAL, patients (%)” value [2] was 2 (33.3), the “NAUSEA, patients (%)” value [2] was 3 (50) and the “NEUTROPHIL COUNT DECREASED, patients (%)” value [2] was 3 (50). The “PLATELET COUNT DECREASED, patients (%)” value [2] was 5 (83.3), the “PLEURAL EFFUSION, patients (%)” value [2] was 1 (16.7) and the “PRURITUS, patients (%)” value [2] was 0. For the same molecule, the “RASH MACULO-PAPULAR, patients (%)” value [2] was 0, the “RASH, patients (%)” value [2] was 1 (16.7) and the “RESPIRATORY FAILURE, patients (%)” value [2] was 1 (16.7). For the same molecule, the “VOMITING, patients (%)” value [2] was 2 (33.3), the “WHITE BLOOD CELL DECREASED, patients (%)” value [2] was 3 (50) and the “ACTIVATED PARTIAL THROMBOPLASTIN TIME PROLONGED, patients (%)” value [3] was 1 (16.7). For the same molecule, the “ANEMIA, patients (%)” value [3] was 1 (16.7), the “ANOREXIA, patients (%)” value [3] was 2 (33.3) and the “CONSTIPATION, patients (%)” value [3] was 1 (16.7). The “DIARRHEA, patients (%)” value [3] was 1 (16.7), the “DYSPNEA, patients (%)” value [3] was 0 and the “EDEMA LIMBS, patients (%)” value [3] was 1 (16.7). For the same molecule, the “ELECTROCARDIOGRAM QT CORRECTED INTERVAL PROLONGED, patients (%)” value [3] was 1 (16.7), the “FATIGUE, patients (%)” value [3] was 2 (33.3) and the “FEBRILE NEUTROPENIA, patients (%)” value [3] was 0. The “HYPERGLYCEMIA, patients (%)” value [3] was 1 (16.7), the “HYPERTENSION, patients (%)” value [3] was 0 and the “HYPOALBUMINEMIA, patients (%)” value [3] was 1 (16.7). For the same molecule, the “HYPOKALEMIA, patients (%)” value [3] was 2 (33.3), the “HYPOPHOSPHATEMIA, patients (%)” value [3] was 0 and the “HYPOXIA, patients (%)” value [3] was 0. The “LUNG INFECTION, patients (%)” value [3] was 0, the “LYMPHOCYTE COUNT DECREASED, patients (%)” value [3] was 1 (16.7) and the “MUCOSITIS ORAL, patients (%)” value [3] was 1 (16.7). The “NAUSEA, patients (%)” value [3] was 3 (50), the “NEUTROPHIL COUNT DECREASED, patients (%)” value [3] was 0 and the “PLATELET COUNT DECREASED, patients (%)” value [3] was 0. The “PLEURAL EFFUSION, patients (%)” value [3] was 1 (16.7), the “PRURITUS, patients (%)” value [3] was 0 and the “RASH MACULO-PAPULAR, patients (%)” value [3] was 0. For the same molecule, the “RASH, patients (%)” value [3] was 1 (16.7), the “RESPIRATORY FAILURE, patients (%)” value [3] was 0 and the “VOMITING, patients (%)” value [3] was 2 (33.3). For the same molecule, the “WHITE BLOOD CELL DECREASED, patients (%)” value [3] was 0, the “ACTIVATED PARTIAL THROMBOPLASTIN TIME PROLONGED, patients (%)” value [4] was 0 and the “ANEMIA, patients (%)” value [4] was 5 (83.3). The “ANOREXIA, patients (%)” value [4] was 0, the “CONSTIPATION, patients (%)” value [4] was 0 and the “DIARRHEA, patients (%)” value [4] was 0. The “DYSPNEA, patients (%)” value [4] was 0, the “EDEMA LIMBS, patients (%)” value [4] was 0 and the “ELECTROCARDIOGRAM QT CORRECTED INTERVAL PROLONGED, patients (%)” value [4] was 1 (16.7). The “FATIGUE, patients (%)” value [4] was 0, the “FEBRILE NEUTROPENIA, patients (%)” value [4] was 1 (16.7) and the “HYPERGLYCEMIA, patients (%)” value [4] was 0. For the same molecule, the “HYPERTENSION, patients (%)” value [4] was 0, the “HYPOALBUMINEMIA, patients (%)” value [4] was 0 and the “HYPOKALEMIA, patients (%)” value [4] was 0. For the same molecule, the “HYPOPHOSPHATEMIA, patients (%)” value [4] was 1 (16.7), the “HYPOXIA, patients (%)” value [4] was 0 and the “LUNG INFECTION, patients (%)” value [4] was 1 (16.7). The “LYMPHOCYTE COUNT DECREASED, patients (%)” value [4] was 2 (33.3), the “MUCOSITIS ORAL, patients (%)” value [4] was 1 (16.7) and the “NAUSEA, patients (%)” value [4] was 0. The “NEUTROPHIL COUNT DECREASED, patients (%)” value [4] was 3 (50), the “PLATELET COUNT DECREASED, patients (%)” value [4] was 5 (83.3) and the “PLEURAL EFFUSION, patients (%)” value [4] was 0. The “PRURITUS, patients (%)” value [4] was 0, the “RASH MACULO-PAPULAR, patients (%)” value [4] was 0 and the “RASH, patients (%)” value [4] was 0. For the same molecule, the “RESPIRATORY FAILURE, patients (%)” value [4] was 1 (16.7), the “VOMITING, patients (%)” value [4] was 0 and the “WHITE BLOOD CELL DECREASED, patients (%)” value [4] was 3 (50). For the same molecule, the “ACTIVATED PARTIAL THROMBOPLASTIN TIME PROLONGED, patients (%)” value (Overall (n=13), Total) was 2 (15.4), the “ANEMIA, patients (%)” value (Overall (n=13), Total) was 11 (84.6) and the “ANOREXIA, patients (%)” value (Overall (n=13), Total) was 2 (15.4). The “CONSTIPATION, patients (%)” value (Overall (n=13), Total) was 2 (15.4), the “DIARRHEA, patients (%)” value (Overall (n=13), Total) was 4 (30.8) and the “DYSPNEA, patients (%)” value (Overall (n=13), Total) was 2 (15.4). The “EDEMA LIMBS, patients (%)” value (Overall (n=13), Total) was 2 (15.4), the “ELECTROCARDIOGRAM QT CORRECTED INTERVAL PROLONGED, patients (%)” value (Overall (n=13), Total) was 6 (46.2) and the “FATIGUE, patients (%)” value (Overall (n=13), Total) was 5 (38.5). For the same molecule, the “HYPERTENSION, patients (%)” value (Overall (n=13), Total) was 3 (23.1), the “HYPOKALEMIA, patients (%)” value (Overall (n=13), Total) was 4 (30.8) and the “LUNG INFECTION, patients (%)” value (Overall (n=13), Total) was 2 (15.4). For the same molecule, the “LYMPHOCYTE COUNT DECREASED, patients (%)” value (Overall (n=13), Total) was 7 (53.8), the “MUCOSITIS ORAL, patients (%)” value (Overall (n=13), Total) was 4 (30.8) and the “NAUSEA, patients (%)” value (Overall (n=13), Total) was 7 (53.8). For the same molecule, the “RASH MACULO-PAPULAR, patients (%)” value (Overall (n=13), Total) was 2 (15.4), the “ACTIVATED PARTIAL THROMBOPLASTIN TIME PROLONGED, patients (%)” value (Overall (n=13), grade 1&2) was 2 (15.4) and the “ANEMIA, patients (%)” value (Overall (n=13), grade 1&2) was 2 (15.4). For the same molecule, the “ANOREXIA, patients (%)” value (Overall (n=13), grade 1&2) was 2 (15.4), the “CONSTIPATION, patients (%)” value (Overall (n=13), grade 1&2) was 2 (15.4) and the “DIARRHEA, patients (%)” value (Overall (n=13), grade 1&2) was 4 (30.8). The “DYSPNEA, patients (%)” value (Overall (n=13), grade 1&2) was 2 (15.4), the “EDEMA LIMBS, patients (%)” value (Overall (n=13), grade 1&2) was 2 (15.4) and the “ELECTROCARDIOGRAM QT CORRECTED INTERVAL PROLONGED, patients (%)” value (Overall (n=13), grade 1&2) was 5 (38.5). For the same molecule, the “FATIGUE, patients (%)” value (Overall (n=13), grade 1&2) was 5 (38.5), the “LUNG INFECTION, patients (%)” value (Overall (n=13), grade 1&2) was 0 and the “LUNG INFECTION, patients (%)” value (Overall (n=13), grade 3+) was 2 (15.4). For the same molecule, the “ACTIVATED PARTIAL THROMBOPLASTIN TIME PROLONGED, patients (%)” value (human, in vivo) was 0, the “ANEMIA, patients (%)” value (human, in vivo) was 9 (69.2) and the “ANOREXIA, patients (%)” value (human, in vivo) was 0. For the same molecule, the “CONSTIPATION, patients (%)” value (human, in vivo) was 0, the “DIARRHEA, patients (%)” value (human, in vivo) was 0 and the “DYSPNEA, patients (%)” value (human, in vivo) was 0. For the same molecule, the “EDEMA LIMBS, patients (%)” value (human, in vivo) was 0, the “ELECTROCARDIOGRAM QT CORRECTED INTERVAL PROLONGED, patients (%)” value (human, in vivo) was 1 (7.7) and the “FATIGUE, patients (%)” value (human, in vivo) was 0. The “RASH MACULO-PAPULAR, patients (%)” value (human, in vivo) was 1 (7.7).
